Experimental data from BindingDB's records for doi:10.1007/pl00005315 (Eli Lilly, 1999).

Experiments:
[1] = target: 5-hydroxytryptamine receptor 2B (Rattus norvegicus, UniProt P30994)
[2] = target: 5-hydroxytryptamine receptor 2A (Homo sapiens, UniProt P28223)
[3] = target: 5-hydroxytryptamine receptor 2B (Homo sapiens, UniProt P41595)
[4] = target: T1, 5-hydroxytryptamine receptor 2C (Homo sapiens, UniProt P28335)
T1 sequence (P28335 whole entry): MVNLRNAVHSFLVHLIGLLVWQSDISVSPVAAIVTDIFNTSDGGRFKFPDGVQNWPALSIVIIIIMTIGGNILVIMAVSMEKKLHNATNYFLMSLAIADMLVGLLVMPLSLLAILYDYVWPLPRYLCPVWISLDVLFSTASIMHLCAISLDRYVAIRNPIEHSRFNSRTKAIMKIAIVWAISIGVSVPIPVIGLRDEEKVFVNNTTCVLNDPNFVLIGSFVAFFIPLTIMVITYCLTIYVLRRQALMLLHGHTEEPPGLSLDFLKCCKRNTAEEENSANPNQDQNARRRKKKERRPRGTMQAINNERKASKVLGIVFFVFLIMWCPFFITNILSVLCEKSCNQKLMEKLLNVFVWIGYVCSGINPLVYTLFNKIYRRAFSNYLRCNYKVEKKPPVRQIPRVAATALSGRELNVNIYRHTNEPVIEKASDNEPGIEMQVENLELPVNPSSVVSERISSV

Sequence of 5-hydroxytryptamine receptor 2B (Homo sapiens, UniProt P41595) (P41595 whole entry): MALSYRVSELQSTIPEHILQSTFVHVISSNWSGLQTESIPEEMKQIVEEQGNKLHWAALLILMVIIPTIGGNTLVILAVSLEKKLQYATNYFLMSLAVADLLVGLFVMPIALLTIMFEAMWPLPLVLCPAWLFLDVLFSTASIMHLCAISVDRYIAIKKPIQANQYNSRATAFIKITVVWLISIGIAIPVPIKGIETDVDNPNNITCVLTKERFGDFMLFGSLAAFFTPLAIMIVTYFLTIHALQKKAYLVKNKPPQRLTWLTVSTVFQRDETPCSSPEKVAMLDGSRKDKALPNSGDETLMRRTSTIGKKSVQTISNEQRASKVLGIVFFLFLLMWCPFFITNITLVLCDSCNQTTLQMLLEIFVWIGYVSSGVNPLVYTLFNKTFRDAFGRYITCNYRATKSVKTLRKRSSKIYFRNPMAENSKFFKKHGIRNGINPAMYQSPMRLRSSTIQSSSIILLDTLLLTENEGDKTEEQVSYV
Sequence of 5-hydroxytryptamine receptor 2A (P28223 whole entry): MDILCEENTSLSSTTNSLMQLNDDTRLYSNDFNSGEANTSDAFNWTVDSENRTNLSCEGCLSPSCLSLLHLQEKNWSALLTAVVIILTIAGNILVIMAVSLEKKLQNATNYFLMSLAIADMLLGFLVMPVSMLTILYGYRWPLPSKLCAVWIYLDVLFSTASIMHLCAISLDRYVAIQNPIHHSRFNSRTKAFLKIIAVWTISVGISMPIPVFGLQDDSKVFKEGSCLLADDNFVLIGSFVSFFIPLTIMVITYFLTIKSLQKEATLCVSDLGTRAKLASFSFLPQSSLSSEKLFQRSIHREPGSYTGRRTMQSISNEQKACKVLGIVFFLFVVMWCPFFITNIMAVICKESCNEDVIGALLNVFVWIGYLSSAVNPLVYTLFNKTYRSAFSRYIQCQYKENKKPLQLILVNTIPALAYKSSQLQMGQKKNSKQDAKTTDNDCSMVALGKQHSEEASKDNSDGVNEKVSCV
Sequence of 5-hydroxytryptamine receptor 2B (Rattus norvegicus, UniProt P30994) (P30994 whole entry): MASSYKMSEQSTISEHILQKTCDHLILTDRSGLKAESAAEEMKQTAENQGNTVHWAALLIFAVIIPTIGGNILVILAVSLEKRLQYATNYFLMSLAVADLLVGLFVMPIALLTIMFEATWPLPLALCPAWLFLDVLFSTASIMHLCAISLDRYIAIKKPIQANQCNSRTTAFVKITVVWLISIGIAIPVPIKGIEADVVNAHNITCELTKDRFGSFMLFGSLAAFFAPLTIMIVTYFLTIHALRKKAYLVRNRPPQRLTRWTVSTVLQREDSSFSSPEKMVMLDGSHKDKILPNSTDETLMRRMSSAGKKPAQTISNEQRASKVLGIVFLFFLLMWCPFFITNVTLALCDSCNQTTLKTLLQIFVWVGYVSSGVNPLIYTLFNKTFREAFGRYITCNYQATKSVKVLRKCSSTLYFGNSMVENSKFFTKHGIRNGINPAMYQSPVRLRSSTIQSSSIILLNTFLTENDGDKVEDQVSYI

Structure (SMILES) | Ki [1] | Ki [2] | Ki [3] | Ki [4]
COc1cc(CC(C)N)cc(OC)c1OC (configuration not stated) | 187 nM | 57.9 nM | 307 nM | 
CCCNC(C)Cc1cc(OC)c(Br)cc1OC (configuration not stated) | 976 nM |  | 521 nM | 514 nM
COc1cc(CC(C)N)c(OC)cc1F (configuration not stated) | 306 nM | 41.7 nM | 227 nM | 28.7 nM
COc1cc(CC(C)N)c(OC)cc1C#N (configuration not stated) | 877 nM | 45.7 nM | 774 nM | 1010 nM
COc1cc(CC(C)N)c(OC)cc1Cc1ccccc1 (configuration not stated) | 53.8 nM | 0.4 nM | 35 nM | 1 nM
COc1cc(C(C)=O)c(OC)cc1CC(C)N (configuration not stated) [1-(4-acetyl-2,5-dimethoxyphenyl)-2-aminopropane] | 947 nM | 80.5 nM | 313 nM | 91.3 nM
CCCc1cc(OC)c(CC(C)N)cc1OC (configuration not stated) [2-(2,5-Dimethoxy-4-propyl-phenyl)-1-methyl-ethylamine(DOPR)] | 115 nM | 0.9 nM | 54.4 nM | 1.1 nM
COc1ccc(OC)c(CC(C)N)c1 (configuration not stated) [2-(2,5-Dimethoxy-phenyl)-1-methyl-ethylamine] |  |  | 1040 nM | 104 nM
COc1cc(CC(C)N)c(OC)cc1Br (stereo not drawn) [2-(4-Bromo-2,5-dimethoxy-phenyl)-1-methyl-ethylamine((-)-DOB)] |  |  | 26.9 nM | 
C[C@]12CC[C@H]3[C@@H](CCC4=CC(=O)CC[C@@]43C)[C@@H]1CC[C@@H]2C(=O)CO [(1S,2R,10S,11S,14S,15S)-14-(2-hydroxyacetyl)-2,15-dimethyltetracyclo[8.7.0.0^{2,7}.0^{11,15}]heptadec-6-en-5-one] | 26.8 nM | 1.4 nM | 31.8 nM | 2 nM
COCCOCCl [CAS_3970-21-6] | 1130 nM | 73 nM | 763 nM | 124 nM
CCCCCCc1cc(OC)c(CC(C)N)cc1OC (configuration not stated) [DOHx] | 49 nM | 0.1 nM | 30.3 nM | 0.7 nM
COc1cc([N+](=O)[O-])c(OC)cc1CC(C)N (configuration not stated) [DON] | 248 nM | 5.5 nM | 166 nM | 22.4 nM
COc1cc(C(C)(C)C)c(OC)cc1CC(C)N (configuration not stated) [DOTB] | 49.6 nM | 3.7 nM | 24.6 nM | 2.2 nM
COc1cc(CC(C)N(C)C)c(OC)cc1Br (configuration not stated) [M-154] | 683 nM | 94.2 nM | 341 nM | 68.1 nM
COc1cc(CC(C)[N+](C)(C)C)c(OC)cc1Br (configuration not stated) [N,N,N-trimethyl-1-(4-bromo-2,5-dimethoxyphenyl)-2-aminopropane] | > 10000 nM | 2150 nM | > 10000 nM | 6300 nM
